The values below come from publication PMC10303900, “Discovery of a New Chalcone-Trimethoxycinnamide Hybrid with Antimitotic Effect: Design, Synthesis, and Structure—Activity Relationship Studies” (Pharmaceuticals, 2023).

Where two headings read alike, the source gives them in different places.

Experiment [1] concerns HCT116 p53−/−. Put plainly: SRB growth inhibition assay, p53 knocked-out colorectal cells. It counts as cell-based, human. The protocol:
(§1) A total of 5.0 × 10^4 A375-C5, MCF-7, and HCT-116 cells, or 6.0 × 10^4 HPAEpiC cells were seeded in 96-well plates and incubated at 37 °C and 5% CO2 to allow for cell attachment. After 24 h, cells were treated with two-fold serial dilutions of test compounds (0–150 µM), or with DMSO as the compound solvent. In parallel, cells in a time-zero (T0) plate, without treatment, were fixed with 50% (m/v) trichloroacetic acid (TCA, Merck Millipore, Darmstadt, Germany), for 1 h at 4 °C, and then washed with distilled water and left to dry. Forty-eight hours after compound treatment, cells were fixed with 50% TCA and stained with SRB (Sigma-Aldrich Co., Ltd., Gillingham, UK) for 30 min at room temperature, followed by 5 rounds of washing with 1% (v/v) acetic acid (Merck Milli-pore, Darmstadt, Germany). SRB–protein complexes were then solubilized with […] Tris buffer (Sigma-Aldrich Co., Ltd., Gillingham, UK) for 30 min, and the absorbance was measured at 515 nm in a microplate reader (Biotek Synergy 2, BioTek Instruments, Inc., Winooski, VT, USA). A dose-response curve was obtained for each cell line, and the concentration that caused 50% cell growth inhibition (GI50) was calculated.

For experiment [2], the system named is HCT116 cells. Put plainly: Apoptosis detection via flow cytometry (Annexin V-FITC/PI). In kind it is cell-based, human. Particulars: HCT116, 48 h, vs untreated or DMSO. The protocol: Double labeling with annexin V-FITC and propidium iodide dyes was used to detect cells going through apoptotic events, using a flow cytometer in order to obtain insights into the mechanism by which compounds 6, 7, and 13 generate antiproliferative activity against colorectal carcinoma cells. For that, HCT116 cells were exposed to each compound for 48 h.
To evaluate apoptotic cell death, the “Annexin V-FITC Apoptosis Detection Kit” (eBioscience, Vienna, Austria) was used according to the manufacturer’s instructions. Briefly, 1.2 × 10^5 cells/well were seeded into 6-well plates, and 24 h later, cells were treated with compounds 6, 7, and 13. After 48 h, floating and adherent cells were collected, pelleted via centrifugation (1000 rpm, 5 min), and suspended in binding buffer. Annexin V-FITC was added and incubated for 10 min, protected from light. Cells were washed and resuspended in binding buffer, and 20 μg/mL of propidium iodide (PI) was added. Fluorescence was assessed using the BD Accuri™ C6 Plus flow cytometer (BD Biosciences, Qume Drive, San Jose, CA, USA), and the data were analyzed with the BD Accuri TM C6 Plus software (version 1.0.27.1, San Jose, CA, USA). At least 20,000 events per sample were collected.
(In flow cytometry, cells or beads pass a laser one at a time.)

Experiment [3] deals with HCT116 cells. As to the kind of experiment: Mitotic arrest / mitotic index by phase-contrast microscopy. In kind it is cell-based, human. Particulars: HCT116, 24 h. On the procedure: Disruption of cell cycle progression is considered one of the most common cytotoxic mechanisms of anticancer drugs. Moreover, the antimitotic effect of BP-M345 (2) has been previously reported. Therefore, compounds 6, 7, and 13 were tested for their capability to induce cell cycle arrest. HCT116 cells were exposed for 24 h to the compounds and then analyzed using phase contrast microscopy for morphological changes. Untreated and dimethyl sulfoxide (DMSO; solvent)-treated cells were used as negative controls. Cell exposure to nocodazole, an antimitotic agent, was used as a positive control. […] We thus calculated the mitotic index (MI), and observed a significant increase in MI in 7-treated cells (22.76 ± 4.30%) compared to the untreated (12.68 ± 1.98%) or DMSO-treated (12.81 ± 1.45%) (Figure 4c).
A total of 1.2 × 10^5 HCT-116 cells were grown in six-well dishes and treated for 24 h with 3.26 µM of compound 7. Cells treated with 1 µM nocodazole were used as a positive control for antimitotic activity. Untreated cells and cells treated with DMSO were included to exclude the cytotoxicity of the compound solvent. Mitotic index, and the percentage of mitotic cells over the total cell population were determined via cell-rounding under phase-contrast microscopy from at least ten random microscope fields.
For phase contrast microscopy images, a Nikon TE 2000-U microscope (Nikon, Amsterdam, The Netherlands) with a 10× objective was used, coupled to a DXM1200F digital camera with Nikon ACT-1 software (Melville, NY, USA). For fluorescence images, an Axio Observer Z.1 SD microscope (Carl Zeiss, Germany) was used, coupled to an AxioCam MR3, with the Plan Apochromatic 63×/NA 1.4 objective. The images were processed using ImageJ, version 1.51.

Experiment [4] has as its system HCT116 (HCT116 p53+/+). As to the kind of experiment: SRB growth inhibition assay, colorectal carcinoma cells. It counts as cell-based. The conditions noted are these: Homo sapiens, HCT-116. On the procedure: A sulforhodamine B (SRB) assay was performed to evaluate the in vitro growth inhibitory activity of all synthesized hybrids, as well as intermediates in the human tumor cell lines of melanoma (A375-C5), breast adenocarcinoma (MCF-7), and colorectal carcinoma (HCT116), as well as on the non-tumor Human Pulmonary Alveolar Epithelial cell line (HPAEpiC). The concentration inducing 50% cell growth inhibition (GI50), was calculated. […] The overall results prompt us to further investigate the mechanism behind the cytotoxic activities of compounds 6, 7, and 13 in colorectal tumor cells. Moreover, in silico studies were performed, aiming to screen for drug-likeness.
A375-C5 (melanoma) and MCF-7 (breast adenocarcinoma) cell lines were obtained from the European Collection of Cell Culture, UK, and were grown in RPMI-1640 medium (Roswell Park Memorial Institute, Biochrom, Cambridge, UK) with 5% inactivated FBS (fetal bovine serum, Biochrom). HCT-116 (colon adenocarcinoma) cells were grown in DMEM medium (Dulbecco’s Modified Eagle’s, Biochrom) with 5% inactivated FBS. The non-tumor human pulmonary alveolar epithelial cells (HPAEpiC) were obtained from ScienCell Research Laboratories and grown in DMEM medium supplemented with 10% FBS and 1% non-essential amino acids (Sigma-Aldrich Co., Saint Louis, MO, USA). All cell lines were maintained in a humidified incubator (Hera Cell, Heraeus, Hanau, Germany) at 37 °C and with 5% CO2, and cell viability was regularly monitored using the exclusion trypan blue dye.
as §1

The subject of experiment [5] is HCT116 cells. Put plainly: Immunofluorescence of mitotic spindle morphology (anti-α-tubulin). It counts as cell-based, human. Particulars: HCT116, GI50 of the compound, 24 h. The protocol: To understand the mechanism behind the induction of mitotic arrest after treatment with the compound 7, we treated HCT116 cells with the GI50 of the compound. Twenty-four hours later, we performed an immunofluorescence assay using an anti-α-tubulin antibody to visualize the spindle morphology.
Cells were treated as for DAPI staining. After methanol fixation, cells were blocked with 10% FBS in PBST (0.05% Tween-20 in PBS) for 30 min at room temperature, followed by 1 h incubation with a primary antibody (mouse anti-α-tubulin, 1:2500, Sigma-Aldrich Co., Ltd., Gillingham, UK) diluted in 5% FBS in PBST. Then, cells were washed three times in PBST and incubated with an Alexa Fluor 488 conjugated secondary antibody (1:1500, Molecular Probes, Eugene, OR, USA). DNA was stained with DAPI.

On to `CCCc1c(OCCNC(=O)/C=C/c2cc(OC)c(OC)c(OC)c2)ccc(C(=O)/C=C/c2cc(OC)c(OC)c(OC)c2)c1O` [Compound 7, (E)-N-(2-(3-hydroxy-2-propyl-4-((E)-3-(3,4,5-trimethoxyphenyl)acryloyl)phenoxy)ethyl)-3-(3,4,5-trimethoxyphenyl)acrylamide], for which, in experiment [1], the “SI, selective index (GI50 of HCT116 p53−/−/GI50 of HCT116 p53+/+)” value is recorded as 0.40. In addition, the GI50 was 1.3 ± 0.09 µM in experiment [1] (Homo sapiens, HCT-116, Table 2, 48 h); 3.26 ± 1.39 µM in experiment [4] (SRB, 48 h, read-out: GI50 HCT116); 3.26 ± 1.39 µM in experiment [4] (Table 2, 48 h, read-out: GI50 HCT116 p53+/+). For the same compound, in experiment [2], the “Apoptosis induction (Annexin V-positive cells)” value is on record as “induces apoptotic tumor cell death”. Further, in experiment [3] (at GI50 (3.26 µM), untreated 12.68 ± 1.98%), the “Mitotic index (MI)” value came out at 22.76 ± 4.30%. For the same compound, the “Accumulation of bright and rounded (mitotic) cells” value in experiment [3] (phase contrast microscopy) was “accumulation of bright and rounded cells”. In experiment [5], the “Cells with collapsed (monopolar-like) mitotic spindles” value stood at 91.41 ± 4.87%. Besides, the “Percentage of bipolar spindles” value in experiment [5] worked out at 6.57 ± 2.13%.
